Test results taken from ChEMBL document CHEMBL1201862, “PubChem BioAssay data set” (2004).
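Five concentrations, 48 hours, 96-well plates. At the GI50, growth is halved.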 The source made the active and inactive calls. Cut-off read from the data, not from the text of the source: active = GI50 up to about 1.1 µM and inactive = higher.

Tests used:
Assay in all cases: NCI anticancer screen, dose series, 48 h
[1] = system: SNB-19
[2] = system: T47D
[3] = system: UACC-62
[4] = system: A498
[5] = system: COLO 205
[6] = system: MOLT-4
[7] = system: SK-OV-3
[8] = system: OVCAR-5
[9] = system: EKVX
[10] = system: OVCAR-3
[11] = system: Malme-3M
[12] = system: HCC 2998
[13] = system: SF-295
[14] = system: Hs-578T
[15] = system: BT-549
[16] = system: MDA-MB-231
[17] = system: M14
[18] = system: TK-10
[19] = system: HOP-92
[20] = system: DU-145
[21] = system: HCT-116
[22] = system: MDA-MB-435
[23] = system: RPMI-8226
[24] = system: PC-3
[25] = system: HOP-62
[26] = system: SN12C
[27] = system: CCRF-CEM
[28] = system: IGROV-1
[29] = system: LOX IMVI
[30] = system: MDA-N
[31] = system: CAKI-1
[32] = system: UO-31
[33] = system: SW-620
[34] = system: SK-MEL-5
[35] = system: HT-29
[36] = system: NCI/ADR-RES
[37] = system: NCI-H460
[38] = system: ACHN
[39] = system: HCT-15
[40] = system: U-251
[41] = system: 786-0
[42] = system: HL-60
[43] = system: OVCAR-4
[44] = system: MCF7
[45] = system: SNB-75
[46] = system: NCI-H522
[47] = system: OVCAR-8
[48] = system: SK-MEL-2
[49] = system: KM12
[50] = system: SF-539
[51] = system: SR
[52] = system: A549
[53] = system: SK-MEL-28
[54] = system: NCI-H23
[55] = system: UACC-257
[56] = system: RXF 393
[57] = system: SF-268
[58] = system: K562
[59] = system: NCI-H226

Measured: GI50

C[Si](C)(C)C#CCO[Si](C)(C)C
inactive: [1] > 100 µM | [2] > 70.6 µM | [3] 56.5 µM | [4] > 100 µM | [5] > 54.3 µM | [6] 22.3 µM | [7] > 100 µM | [8] > 100 µM | [9] 97.9 µM | [10] > 94.2 µM | [11] > 100 µM | [12] > 100 µM | [13] > 100 µM | [14] > 100 µM | [15] 39.1 µM | [16] > 50.2 µM | [17] > 74.8 µM | [18] > 100 µM | [19] 18.2 µM | [20] > 100 µM | [21] 65 µM | [22] > 61.4 µM | [23] 21 µM | [24] > 100 µM | [25] > 100 µM | [26] > 100 µM | [27] 5.69 µM | [28] 16.1 µM | [29] 7.03 µM | [30] 49.8 µM | [31] > 78.7 µM | [32] > 100 µM | [33] 37.8 µM | [34] > 100 µM | [35] 32.9 µM | [36] > 100 µM | [37] > 100 µM | [38] > 100 µM | [40] > 100 µM | [41] 32.7 µM | [42] 31.5 µM | [43] > 100 µM | [44] > 74.8 µM | [45] 47.2 µM | [46] 15.9 µM | [47] 36.3 µM | [48] > 54.2 µM | [49] > 50.4 µM | [50] 21.9 µM | [51] 34.1 µM | [52] > 100 µM | [53] > 75.3 µM | [54] 68.7 µM | [55] > 100 µM | [56] > 100 µM | [57] 34.2 µM | [58] 30.9 µM | [59] > 100 µM
> 79.8 µM: [39]

CCOc1cc2oc(C)cc(=O)c2c(OC)c1/C=N/c1ccc(Cn2c(C)nc3ccccc32)cc1
inactive: [1] > 100 µM | [2] > 100 µM | [3] > 100 µM | [4] > 100 µM | [5] > 100 µM | [6] > 100 µM | [7] > 100 µM | [8] > 100 µM | [9] > 100 µM | [10] > 100 µM | [11] > 100 µM | [12] > 100 µM | [13] > 100 µM | [14] > 100 µM | [15] > 100 µM | [16] > 100 µM | [17] > 100 µM | [18] > 100 µM | [19] > 100 µM | [20] > 100 µM | [21] > 100 µM | [22] > 100 µM | [23] > 100 µM | [24] > 100 µM | [25] > 100 µM | [26] > 100 µM | [27] > 100 µM | [28] > 100 µM | [29] > 100 µM | [30] > 100 µM | [31] > 100 µM | [32] > 100 µM | [33] > 100 µM | [34] > 100 µM | [35] > 100 µM | [36] > 100 µM | [37] > 100 µM | [38] > 100 µM | [40] > 100 µM | [41] > 100 µM | [42] > 100 µM | [43] > 100 µM | [44] > 100 µM | [45] > 100 µM | [46] > 100 µM | [47] > 100 µM | [48] > 100 µM | [49] > 100 µM | [50] > 100 µM | [51] > 100 µM | [52] > 100 µM | [53] > 100 µM | [54] > 100 µM | [55] > 100 µM | [56] > 100 µM | [57] > 100 µM | [58] > 100 µM | [59] > 100 µM
> 100 µM: [39]
